{"source": "patent US20050282755A1", "about": "“Compositions having antimicrobial activity and uses thereof” (priority 2004, published 2005)", "test_system": "P. acnes, ATCC 6919", "assay": "Broth microdilution assay for P. acnes MBC, Table 4B", "format": "cell-based, Propionibacterium acnes", "conditions": "3 log or greater reduction in CFU/milliliter after 2.5 hours", "excerpt": "The strain of P. acnes was purchased from ATCC (strain #6919) (Manassas, Va.). […] HeLa cells were purchased from ATCC (CCL2). Tryptic soy broth (TSB), Brucella broth, reinforced Clostridial broth and agar were purchased from Becton & Dickinson (distributed by VWR, West Chester, Pa.). All plastic consumables were purchased from VWR (West Chester, Pa.). Chemicals were purchased from Sigma Aldrich (St. Louis, Mo.). DMEM, antibiotics and cell culture supplements were purchased from Invitrogen (Carlsbad, Calif.), fetal calf serum (FCS) was purchased from Hyclone (Logan, Utah). […] For propagation in liquid culture individual colonies were inoculated in […] of TSB broth for 16 hours at 37° C. under constant shaking. P. acnes was grown on Brucella broth blood agar plates (supplemented with 5% defibrinated sheep blood, […] hemin and […] vitamin K) under anaerobic conditions (GasPak system, Becton & Dickinson) for 96 hours at 37° C. For propagation in liquid culture individual colonies were inoculated in […] of reinforced Clostridial broth under anaerobic conditions for 72 hours at 37° C. […] The minimum bactericidal concentration (MBC) of peptide compositions for P. acnes was determined in a microdilution assay. […] The appearance of bacterial colonies was evaluated and documented."}
{"compound": "CSCC[C@@H](NC(=O)[C@@H](Cc1ccccc1)NC(=O)[C@@H](CC(N)=O)NC(=O)[C@@H](CCCNC(=N)N)NC(=O)[C@@H](CO)NC(=O)[C@@H](Cc1c[nH]c2ccccc12)NC(=O)[C@@H](CC(=O)O)NC(=O)[C@@H](CCCNC(=N)N)NC(=O)[C@@H](Cc1c[nH]c2ccccc12)NC(=O)[C@@H](CCCNC(=N)N)NC(=O)[C@@H](CO)NC(=O)[C@@H](CCCNC(=N)N)NC(=O)CNC(=O)[C@H](NC(=O)[C@@H](CCCNC(=N)N)NC(=O)[C@@H](CO)NC(=O)[C@H](NC(=O)[C@@H](CCCNC(=N)N)NC(=O)[C@H](NC(C)=O)[C@H](C)O)C(C)C)[C@H](C)O)C(=O)N[C@H](CCCNC(=N)N)C(=O)N[C@H](C)C(=O)N[C@H](C)C(N)=O", "note": "[Peptide 30, Ac-trvsrtgrsrwrdwsrnfmraa-NH2]", "values": [{"measurement": "Minimum bactericidal concentration (MBC) for P. acnes", "value": 8, "unit": "micromolar units"}]}
